According to patent publication US10011571B2, “Preparation method for aromatic heterocyclic compound used as selective JAK3 and/or JAK1 kinase inhibitor and application of aromatic heterocyclic compound” (SHENZHEN CHIPSCREEN BIOSCIENCES, LTD., priority 2014, dated 2018):
Where a name gives a salt, the structure may show the parent alone.

Legend:
[1] = tested on: collagen-induced arthritis (CIA) model of rats; assay: Collagen-induced arthritis (CIA) model of rats; type: in vivo; details: rat CIA
Experimental: Objective: in this test, arthritis is induced by chicken collagen in Wistar rats. After in vivo administration of the compounds of Example 7 and Example 22, the change of the disease index for arthritis in rats is evaluated to determine the therapeutic effect of the test compounds on rat arthritis.
Experimental animals: 36 female Wistar rats were purchased from the animal experiment center, Sun Yat-Sen University (Guangzhou) with the body weight ranging from 180 to 200 g at the beginning of experiment. Four groups (8 rats in each group) were used as the arthritis model, and another group (4 rats) was used as normal control.
Materials: chicken type II collagen and Freund's complete adjuvant were purchased from Beijing Biolead Science and Technology Development Co., Ltd. Positive control: methotrexat (MTX).
Preparation method: the test compounds were prepared by adding them to freshly prepared 0.2% CMC-Na+0.1% Tween-80 solution in sterile water to a desired concentration and thoroughly mixing through ultrasound.
CIA model: the chicken collagen was fully emulsified in equal volume of freud's complete adjuvant, and subcutaneously injected at the tail root of the rat on day 0 for sensitization (250 μL/rat). Another injection was performed at the tail root on day 7 for supplementary immunization (100 μL/rat). After arthritis occurred (on about day 13), the rats were randomly divided into 4 groups with 8 rats in each group. Administration started on day 14 after the first immunization, and lasted for 14 days. The limbs of a rat were visually inspected, and the severity of arthritis was scored in a range from […]: 0=normal; 1=a slight symptom, with signs, such as red and swollen ankle or wrist; 2=moderate red and swollen ankle or wrist; 3=severe red and swollen paw, including toes; 4=severe swollen joint accompanied with dysfunction; the highest score for each rat was 16. The thickness of toes of posterior limbs and the paw volume were measured at the same time.
Medication: the rats were i.g. administered with the compound of Example 7 at a concentration of 40 mg/kg twice/day; or the rats were i.g. administered with the compound of Example 22 at a concentration of 40 mg/kg twice/day. For the positive control, 5 mg/kg MTX was intraperitoneally injected twice a week. The i.g. administration of solvent was used as the negative control. The data obtained 14 days after administration and before administration were compared.

HUVEC cells = assay: Cell growth activity assay (MTS), HUVEC cell model; type: cell-based; details: Homo sapiens, 72 h; for activity at 10 µM: read-out: HUVEC % growth rate @10 μM
From the text: MTS assay is a routine method for cell toxicity detection. The basic principle is based on the capacity of dehydrogenase in the mitochondria of living cells to reduce a novel yellow […] MTS to formazan, so that the amount of living cells is proportional to the amount of formazan product by detecting the absorbance at 490 nm (OD), thereby speculating the amount of living cells according to the OD value, and understanding the capacity of the test compound to inhibit the growth of cells or to kill the cells.
HeLa cell is a human cervical cancer cell line, and belongs to epithelial tumor cell line; HUVEC is a human umbilical vein endothelial cell, and belongs to primary endothelial cell; both types of cells express all subtypes except for JAK3.
The change of JAK kinase activity has no significant influence on other cell types except for the immune cells, and both cell models mentioned above are mainly used to evaluate whether there are any other kinase targets besides JAK kinases or there are nonselective cell toxicities.
In this experiment, a cultured cell model is incubated with the test compounds at different concentrations for a specific duration. The effect of the treatment by the test compound on the growth of cells is detected using MTS assay.
MTS is performed according to routine procedure in a 96-well plate.
The model cells are inoculated into each well of the 96-well plate at an appropriate concentration (about 5000 cells/well). After 24 h, the test compounds are added at different concentration gradients (the highest final concentration is 40 μM). A solvent control (DMSO) and a negative control are also performed at the same time. Each experiment is repeated for 3 times. The cells are detected after cultured for another 72 h.
After all culture medium is aspirated out of the well, 100 μL fresh medium and 20 μL pre-formulated mixture of MTS and PMS (in a ratio of 20:1) are added to each well. After incubation at 37° C. for 2 h, it is then detected by a microplate reader (490 nm).
The cell growth inhibitory rate and GI50 of the test compound are calculated as above.
Based on the above method, cytological evaluation is performed to the compounds described herein (for the detection of CTLL-2 cell, the concentration of the test compound is 300 nM; […]).

JAK2 = JAK2 (Homo sapiens (Human), UniProt O60674); assay: Z'-LYTE enzymatic activity detection, JAK2; type: biochemical; details: test compound 30 nM; for inhibition at 0.03 µM: read-out: JAK2 % inhibitory rate @30 nM
How it was run: (§1)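 GST-tagged human recombinant kinases with Z′-LYTE peptides (Tyr6 for JAK1, Tyr4 for JAK2 and JAK3), ATP from kit, reacted 1 h at room temperature; development 1 h, ratio 445/520 nm at 400 nm excitation gives phosphorylation. Inhibition vs solvent control at 30 nM (JAK2, JAK3) or 300 nM (JAK1); tofacitinib as positive control.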

HeLa cells = assay: Cell growth activity assay (MTS), HeLa cell model; type: cell-based, human; parameters: activity: dose or concentration left out as unconfirmed; details: Homo sapiens, HeLa, 72 h; for activity: read-out: HeLa % growth rate
How it was run: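 HeLa human cervical cancer cells were plated at about 5000 cells/well in a 96-well plate. After 24 h, test compounds were added in concentration gradients (highest final concentration 40 μM), alongside a DMSO solvent control and a negative control. After another 72 h, the medium was replaced with 100 μL fresh medium plus 20 μL MTS/PMS (20:1). Plates were incubated 2 h at 37° C. and absorbance was read at 490 nm to give growth inhibition and GI50.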

JAK3 = JAK3 (Homo sapiens (Human), UniProt P52333); assay: Z'-LYTE enzymatic activity detection, JAK3; type: biochemical; details: test compound 30 nM; for inhibition at 0.03 µM: read-out: JAK3 % inhibitory rate @30 nM
How it was run: as §1

CTLL-2 cells = assay: Cell growth activity assay (MTS), CTLL-2 cell model; type: cell-based, mouse; details: Mus musculus; for activity at 0.3 µM: CTLL-2, 300 nM, 24 h, read-out: CTLL-2 % growth rate @300 nM
How it was run: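 Mouse IL-2-dependent T-cell line seeded ~20,000 cells/well, compounds added after 24 h at gradient concentrations (top 10 μM; CTLL-2 evaluation at 300 nM), cultured another 24 h. MTS/PMS added, 2 h at 37° C, absorbance 490 nm; inhibition vs DMSO control after negative-control background subtraction, GI50 calculated; triplicate.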

JAK1 = JAK1 (Homo sapiens (Human), UniProt P23458); assay: Z'-LYTE enzymatic activity detection, JAK1; type: biochemical; details: test compound 300 nM; for inhibition at 0.3 µM: read-out: JAK1 % inhibitory rate @300 nM
How it was run: as §1

[2] = 14 days after administration, Examples 40 mg/kg i.g. twice/day, MTX 5 mg/kg i.p. twice a week

Sequence of JAK3 (P52333 whole entry): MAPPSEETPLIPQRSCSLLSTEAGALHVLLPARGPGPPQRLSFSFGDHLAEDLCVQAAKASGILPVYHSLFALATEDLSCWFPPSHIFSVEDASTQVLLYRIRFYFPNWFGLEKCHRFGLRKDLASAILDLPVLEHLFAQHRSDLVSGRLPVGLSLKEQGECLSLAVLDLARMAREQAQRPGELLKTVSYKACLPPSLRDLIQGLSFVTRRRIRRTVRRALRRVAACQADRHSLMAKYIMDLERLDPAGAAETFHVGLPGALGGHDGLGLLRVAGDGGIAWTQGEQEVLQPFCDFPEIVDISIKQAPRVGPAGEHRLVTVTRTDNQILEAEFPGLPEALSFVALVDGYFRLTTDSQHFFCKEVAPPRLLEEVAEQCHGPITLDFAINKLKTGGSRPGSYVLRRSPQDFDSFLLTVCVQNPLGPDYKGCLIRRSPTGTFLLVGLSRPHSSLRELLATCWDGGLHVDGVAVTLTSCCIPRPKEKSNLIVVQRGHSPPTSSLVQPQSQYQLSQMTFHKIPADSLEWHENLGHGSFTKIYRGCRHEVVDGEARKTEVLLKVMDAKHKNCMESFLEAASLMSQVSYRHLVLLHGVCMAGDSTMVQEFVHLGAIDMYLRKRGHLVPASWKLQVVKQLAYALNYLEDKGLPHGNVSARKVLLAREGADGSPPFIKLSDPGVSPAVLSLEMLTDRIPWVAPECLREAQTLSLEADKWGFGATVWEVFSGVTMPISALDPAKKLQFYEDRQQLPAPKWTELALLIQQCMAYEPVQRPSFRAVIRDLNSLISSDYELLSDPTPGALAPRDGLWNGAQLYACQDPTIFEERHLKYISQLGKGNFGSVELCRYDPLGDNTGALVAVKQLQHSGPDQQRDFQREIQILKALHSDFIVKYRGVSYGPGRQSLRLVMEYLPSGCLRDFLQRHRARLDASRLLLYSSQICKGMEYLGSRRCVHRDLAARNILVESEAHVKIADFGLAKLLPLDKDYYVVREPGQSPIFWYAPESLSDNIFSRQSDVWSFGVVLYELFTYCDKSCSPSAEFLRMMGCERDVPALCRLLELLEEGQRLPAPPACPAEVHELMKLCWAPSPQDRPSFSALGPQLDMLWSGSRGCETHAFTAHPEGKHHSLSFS
Sequence of JAK1 (P23458 whole entry): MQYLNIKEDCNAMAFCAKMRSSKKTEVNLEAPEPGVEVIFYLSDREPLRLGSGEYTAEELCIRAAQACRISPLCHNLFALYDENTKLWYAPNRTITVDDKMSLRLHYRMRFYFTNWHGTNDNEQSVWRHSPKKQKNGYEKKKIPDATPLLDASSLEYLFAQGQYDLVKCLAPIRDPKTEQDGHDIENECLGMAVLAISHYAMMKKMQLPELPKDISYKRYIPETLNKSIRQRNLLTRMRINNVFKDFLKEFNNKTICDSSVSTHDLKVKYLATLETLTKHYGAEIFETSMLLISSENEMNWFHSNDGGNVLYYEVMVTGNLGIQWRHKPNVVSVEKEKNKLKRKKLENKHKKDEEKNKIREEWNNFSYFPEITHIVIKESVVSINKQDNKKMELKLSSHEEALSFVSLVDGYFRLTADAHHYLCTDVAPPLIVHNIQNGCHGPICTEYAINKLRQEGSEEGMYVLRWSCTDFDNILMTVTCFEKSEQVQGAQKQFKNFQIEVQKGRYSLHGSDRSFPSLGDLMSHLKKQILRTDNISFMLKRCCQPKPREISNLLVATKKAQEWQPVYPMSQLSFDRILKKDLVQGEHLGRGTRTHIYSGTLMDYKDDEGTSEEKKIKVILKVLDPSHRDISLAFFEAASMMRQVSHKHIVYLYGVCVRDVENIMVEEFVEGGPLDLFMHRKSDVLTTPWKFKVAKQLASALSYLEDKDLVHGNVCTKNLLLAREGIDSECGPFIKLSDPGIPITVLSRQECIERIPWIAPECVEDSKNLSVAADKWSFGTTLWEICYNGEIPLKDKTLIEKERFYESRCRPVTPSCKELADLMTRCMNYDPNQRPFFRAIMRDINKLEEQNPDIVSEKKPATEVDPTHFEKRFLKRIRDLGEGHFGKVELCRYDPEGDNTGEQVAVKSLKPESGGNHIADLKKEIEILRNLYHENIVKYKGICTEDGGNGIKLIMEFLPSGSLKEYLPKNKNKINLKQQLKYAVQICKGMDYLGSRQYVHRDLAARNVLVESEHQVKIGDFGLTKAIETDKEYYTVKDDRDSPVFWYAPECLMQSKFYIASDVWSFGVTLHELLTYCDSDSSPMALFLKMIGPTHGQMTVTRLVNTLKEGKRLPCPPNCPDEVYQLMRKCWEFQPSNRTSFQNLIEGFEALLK
Sequence of JAK2 (O60674 whole entry): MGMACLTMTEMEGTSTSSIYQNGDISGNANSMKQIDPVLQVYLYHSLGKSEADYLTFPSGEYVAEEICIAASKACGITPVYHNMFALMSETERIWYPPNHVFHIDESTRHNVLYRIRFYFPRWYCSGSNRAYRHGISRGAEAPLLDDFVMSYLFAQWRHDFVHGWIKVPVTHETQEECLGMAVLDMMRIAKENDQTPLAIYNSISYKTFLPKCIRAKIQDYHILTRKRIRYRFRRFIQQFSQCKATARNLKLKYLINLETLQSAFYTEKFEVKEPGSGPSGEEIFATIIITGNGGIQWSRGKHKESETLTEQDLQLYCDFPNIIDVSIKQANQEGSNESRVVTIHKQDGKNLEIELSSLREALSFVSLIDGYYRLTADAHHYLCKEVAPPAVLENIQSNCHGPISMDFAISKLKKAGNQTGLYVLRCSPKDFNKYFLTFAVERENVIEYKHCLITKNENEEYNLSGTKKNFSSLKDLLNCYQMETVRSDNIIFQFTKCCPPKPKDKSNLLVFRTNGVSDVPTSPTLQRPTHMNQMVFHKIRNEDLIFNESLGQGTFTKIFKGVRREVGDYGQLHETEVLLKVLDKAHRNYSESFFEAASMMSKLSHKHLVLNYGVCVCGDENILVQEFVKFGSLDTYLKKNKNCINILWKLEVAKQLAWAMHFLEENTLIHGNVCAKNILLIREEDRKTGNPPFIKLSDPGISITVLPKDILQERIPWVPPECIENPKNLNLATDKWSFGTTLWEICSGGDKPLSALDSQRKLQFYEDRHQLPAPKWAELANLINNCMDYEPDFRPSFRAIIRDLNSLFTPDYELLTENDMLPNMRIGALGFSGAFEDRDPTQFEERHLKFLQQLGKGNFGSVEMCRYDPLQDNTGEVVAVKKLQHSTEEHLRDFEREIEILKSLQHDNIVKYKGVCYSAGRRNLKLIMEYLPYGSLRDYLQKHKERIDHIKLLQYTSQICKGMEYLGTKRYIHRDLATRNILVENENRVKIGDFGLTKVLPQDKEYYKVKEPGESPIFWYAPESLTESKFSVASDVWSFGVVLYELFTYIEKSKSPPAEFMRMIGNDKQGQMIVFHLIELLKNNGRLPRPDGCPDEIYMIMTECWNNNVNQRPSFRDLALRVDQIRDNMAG

SMILES	Inhibitory rate for arthritis score % [1, 2] [%]	Inhibitory rate for paw volume % [1, 2] [%]	Inhibitory rate for toe thickness % [1, 2] [%]	Body weight growth rate % ([1]; 14 days after administration, solvent = 100.0, Examples 40 mg/kg i.g. twice/day, MTX 5 mg/kg i.p. twice a week) [%]	toxicity to the rats judged from body weight ([1]; compared to the solvent group)	activity at 10 µM (HUVEC cells) [%]	JAK2 RV (ratio between the inhibitory rate of the test compound and that of Xeljanz) (JAK2)	inhibition at 0.03 µM (JAK2) [%]	activity (HeLa cells) [%]	JAK3 RV (ratio between the inhibitory rate of the test compound and that of Xeljanz) (JAK3)	inhibition at 0.03 µM (JAK3) [%]	activity at 0.3 µM (CTLL-2 cells) [%]	JAK1 RV (ratio between the inhibitory rate of the test compound and that of Xeljanz) (JAK1)	inhibition at 0.3 µM (JAK1) [%]	GI50 (HUVEC cells) [µM]	GI50 (HeLa cells) [µM]	GI50 (CTLL-2 cells; CTLL-2, 24 h) [µM]
CN(Cc1cnc2nc(N)nc(N)c2n1)c1ccc(C(=O)N[C@@H](CCC(=O)O)C(=O)O)cc1 [MTX, methotrexate, reference compound]	73.1	43.1	70.2	95.4	certain toxicity	–	–	–	–	–	–	–	–	–	–	–	–
C=CC(=O)N(C)c1cc(Nc2ncc(C)c(NCCCNC(=O)c3ccc(C(F)(F)F)cc3)n2)ccc1F [Example 21, N-(3-(2-(4-fluoro-3-(N-methylacrylamido)phenylamino)-5-methylpyrimidinyl-4-amino)propyl)-4-trifluoromethylbenzamide]	–	–	–	–	–	102	0.07	2	94	0.82	71	57	0.69	59	–	–	–
C[C@@H]1CCN(C(=O)CC#N)C[C@@H]1N(C)c1ncnc2[nH]ccc12 [Xeljanz, tofacitinib citrate, reference compound]	–	–	–	–	–	–	–	–	–	–	–	–	–	–	> 40	> 40	0.067
C=CC(=O)Nc1cc(Nc2ncc(Cl)c(NCCCNC(=O)c3ccc(F)cc3)n2)ccc1F [Example 17, N-(3-(2-(3-acrylamido-4-fluoro-phenylamino)-5-chloropyrimidinyl-4-amino)propyl)-4-fluorobenzamide]	–	–	–	–	–	1	0.03	1	1	0.97	84	20	0.93	79	–	–	–
C=CC(=O)N(C)c1cc(Nc2ncc(Cl)c(NCCCNC(=O)c3ccc(N(C)C)cc3)n2)ccc1F [Example 32, N-(3-(5-chloro-2-(4-fluoro-3-(N-methylacrylamido)phenylamino)pyrimidinyl-4-amino)propyl)-4-dimethylamino benzamide]	–	–	–	–	–	72	0.03	2	68	0.94	89	16	0.57	49	–	–	–
C=CC(=O)N(C)c1cc(Nc2ncc(Cl)c(NCCCNC(=O)C3CCN(C)CC3)n2)ccc1F [Example 27, N-(3-(5-chloro-2-(4-fluoro-3-(N-methylacrylamido)phenylamino)pyrimidinyl-4-amino)propyl)-1-methylpiperidinyl-4-formamide]	–	–	–	–	–	6	–	–	30	0.59	35	85	0.45	42	–	–	–
C=CC(=O)Nc1cc(Nc2ncc(Cl)c(NCCCNC(=O)c3ccc(C#N)cc3)n2)ccc1F [Example 28, N-(3-(2-(3-acrylamido-4-fluorophenylamino)-5-chloropyrimidinyl-4-amino)propyl)-4-cyano-benzamide]	–	–	–	–	–	98	0.03	2	81	0.85	81	77	0.40	34	–	–	–
C=CC(=O)N(C)c1cc(Nc2ncc(C)c(NCCCNC(=O)c3ccc(F)cc3)n2)ccc1F [Example 19, 4-fluoro-N-(3-(2-(4-fluoro-3-(N-methylacrylamido)phenylamino)-5-methylpyrimidinyl-4-amino)propyl)benzamide]	–	–	–	–	–	136	–	0	108	–	59	67	–	39	–	–	–
